Assay results taken from patent US11441168B2, “Method for assaying the activity of spermidine/spermine N1-acetyltransferase” (BioMark Technologies Inc., priority 2011, dated 2022).

Experiments:
[1] = target: spermidine/spermine N1-acetyltransferase (SSAT) (Rattus norvegicus, UniProt Q6P9U6); assay: SSAT-mediated N-acetylation enzyme kinetics in plateable cryopreserved primary rat hepatocytes (LC/MS/MS, Lineweaver-Burk); conditions: for Vmax of N-acetylation by SSAT: confirmatory experiment, primary rat hepatocytes, 24-hour incubation, Lineweaver-Burk estimate
Sequence of spermidine/spermine N1-acetyltransferase (SSAT) (Q6P9U6 1-171): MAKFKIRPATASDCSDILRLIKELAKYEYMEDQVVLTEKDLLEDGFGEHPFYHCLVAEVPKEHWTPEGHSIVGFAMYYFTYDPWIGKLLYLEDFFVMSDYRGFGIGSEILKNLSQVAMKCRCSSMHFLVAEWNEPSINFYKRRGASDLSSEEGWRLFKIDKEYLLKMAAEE
Method: (§1) Refer to the table below for the testing concentrations. Metabolites collected from the incubation reactions were measured by LC/MS/MS analysis.
Immediately before use, cryopreserved primary rat hepatocytes were thawed in a water bath at 37° C. and resuspended in pre-warmed InVitroGRO™ CP Rat Medium. […] Hepatocyte concentrations were adjusted by addition with InVitroGRO™ CP Rat Medium to achieve the target plating concentration of 0.70×10^6 cells/m L. Aliquots of hepatocytes were plated (0.5 mL/well) in 24-well CellAffix culture plates and the plates were placed in an incubator maintained at 37° C. with a highly humidified atmosphere of 95% air and 5% […] for 4 hours to allow hepatocyte attachment before dosing with the selective substrate solutions.
(§2) Following cell attachment, the culture medium was aspirated from each well, and replaced with pre-warmed InVitroGRO™ HI Rat Medium (added with Torpedo antibiotic mix in the confirmatory experiment) and the substrate solution at the appropriate concentration. The treated cells were returned to incubation for 24 hours. Upon completion of incubation, the medium from each well was collected into 1.7-mL vials containing ice-cold methanol and stored at nominal −80° C. (−72° C. to −88° C.) prior to LC/MS/MS analysis. Hepatocytes remaining in the wells were subjected to MTT assay to evaluate the cytotoxic potential of the substrates at the testing concentrations.
Four LC/MS/MS assays were employed to individually quantitate the four metabolites in the incubation samples.
Enzyme kinetics was evaluated based on the enzymatic conversion of the substrate at a range of testing concentrations into their N-acetylated metabolites over a 24-hour incubation reaction time course. Metabolite formation from different testing substrate concentrations after incubation was measured by LC/MS/MS and the resulting data constructed into Lineweaver-Burk plots of the double reciprocal of reaction velocity against substrate concentrations to estimate the Km and Vmax values of SSAT-mediated N-acetylation of each substrate tested.

rat hepatocytes = conditions: for Substrate concentration resulting in extensive cytotoxicity / Substrate concentration that resulted in extensive cytotoxicity: rat, 24 h
Method: as §1, §2
Upon collection of the reaction medium, an aliquot of 0.5 mg/mL MTT in KHB was added immediately to the remaining hepatocytes in each well and then incubated for approximately 30 minutes. Following incubation, the medium was replaced with dimethyl sulfoxide (DMSO) to dissolve the formazan. An aliquot from each well was measured for absorbance at 540 nm on a 96-well flat bottom plate with a microplate reader and DMSO for background absorbance correction.
The cytotoxic potential of the substrates to rat hepatocytes was evaluated by MTT cytotoxicity assays. The assays were performed in both the pilot and the confirmatory experiments.

[2] = target: SSAT in cytosolic liver fraction of transgenic mice (Mus musculus, UniProt P48026); conditions: read-out: Km of spermidine acetylation (literature reference); cited from earlier work
Sequence of SSAT in cytosolic liver fraction of transgenic mice (P48026 whole entry): as the sequence (Q6P9U6 1-171) above, with V35I, L42Q counted along it

SMILES	Vmax of N-acetylation by SSAT [1]	Cytotoxicity to rat hepatocytes (in words) (rat hepatocytes)	Km [2]	Substrate concentration resulting in extensive cytotoxicity (rat hepatocytes)	Substrate concentration that resulted in extensive cytotoxicity (rat hepatocytes)	Km at 24 h ([1]; rat)
NCCCCNCCCN [spermidine]	7.21 pmol/min/million cells	No cytotoxicity	267 ± 46 µM	–	–	–
NC12CC3CC(CC(C3)C1)C2 [amantadine]	0.00197 pmol/min/million cells	Significant cytotoxicity	–	approximately 1140 μM	approximately 1170 μM	–
CC(N)C12CC3CC(CC(C3)C1)C2 (centres unmarked) [rimantadine]	0.364 pmol/min/million cells	Significant cytotoxicity	–	~220 µM	~280 µM	1840 µM
Cc1cccc(C)c1NC(=O)C(C)N (centres unmarked) [tocainide]	0.617 pmol/min/million cells	No cytotoxicity	–	–	–	–
